System: Pα-syn* aggregates in PFF-seeded primary hippocampal neurons
Assay: Autophagy modulation assay: Pα-syn* aggregates in PFF-seeded primary hippocampal neurons
Assay type: cell-based, mouse
Conditions: treated from day 3.5 to day 6 post-PFF exposure, rapamycin 300 nM, chloroquine 1 μM, 3-Methyladenine 1 mM, 200 cells counted blinded, versus vehicle
Method: Primary neuronal cultures and PFFs seeding: Primary neuronal cultures were prepared from E16-E18 C57BL/6 mouse brains (Charles River Laboratories) using standard procedures. For immunofluorescence experiments, dissociated hippocampal neurons were plated onto poly-L-lysine coated glass coverslips placed in 24-well plates, at a cell density of 125,000 cells/well. For biochemical assays, dissociated cortical neurons were plated onto poly-L-lysine-coated 6-well plates at a cell density of 1,000,000 cells/well. Neuronal cultures were seeded with PFFs at 5-6 days in vitro (DIV). […] Just before seeding, PFFs were diluted in PBS at 0.1 mg/ml, sonicated during 30 sec (0.5 sec ON, 0.5 sec OFF, power 30%), and diluted in neuronal media. Two μg/ml PFFs (final) per well were added on 24-well plates for immunofluorescence experiments, and 4 μg/ml PFFs (final) per well were added to 6-well plates for biochemical assays. In the case of control conditions, an equivalent volume of PBS was added to the neuronal cultures. Autophagy modulation assays: Dissociated hippocampal neurons were plated onto poly-L-lysine coated glass coverslips placed in 24-well plates, at a cell density of 125,000 cells/well and seeded with PFFs (or equivalent volume of PBS for the control) at 5-6 DIV. […] Thereafter, neuronal cultures were grown for an extra 2.5 days until a total of 6 days after PFF seeding, were fixed and processed for immunofluorescence. In order to assess the effect of autophagy modulation on Pα-syn* generation, a total of 200 cells per treatment were evaluated and the number of Pα-syn* aggregates per cells was counted in a blinded fashion at 100× magnification. Immunofluorescence experiments: Neurons were fixed for 30 min at room temperature with 4% (w/v) paraformaldehyde in PBS containing 4% (w/v) sucrose. Neurons were washed with PBS, permeabilized with 0.2% (v/v) Triton X-100 in PBS for 6 min, washed again in PBS and blocked for 1 hour at room temperature. […]

SMILES	number of Pα-syn* aggregates per cell	number of Pα-syn* aggregates per cell (listed as 3-MA)
CCN(CC)CCCC(C)Nc1ccnc2cc(Cl)ccc12 (stereo not drawn) [chloroquine]	fewer	–
Cn1cnc(N)c2ncnc1-2 [3-Methyladenine]	decrease	fewer
